From article PMC9794698, “Structure optimization of new tumor-selective Passerini α-acyloxy carboxamides as Caspase-3/7 activators” (Scientific Reports, 2022)
Several values for one entry are separate records, joined by “and”; a condition that tells them apart may be missing. Identical values can stand only once. Like-named read-outs stand apart in the source and are kept apart here.

Columns and labels:
Bcl2 = assay: RT-qPCR of Bcl2 expression in Caco-2 cells; assay type: cell-based, human; conditions: 0.06 µM for 72 h, mean ± SEM
Procedure: (§1) RNAs of untreated and treated cancer cells were extracted using Gene JET RNA purification kit (Thermo Scientific, USA). Then cDNAs were synthesized using cDNA Synthesis Kit (Thermo Scientific, USA). Real time PCR was performed using SYBR green master mix and specific primers (Forward/Reverse) as detailed in the supplementary data. […]
5.3. Real-time Quantitative PCR Analysis of Bcl2 […]
as §1, with “µM, for 72 h in 5% CO2 incubator. RNAs” for “RNAs”, “primers” for “primers (Forward/Reverse) as detailed in the supplementary data.”
The thermal cycling parameters were pre-denaturation, followed by 40 amplification cycles of 1 min at 95°C and 30 s at 60 °C and at 72°C for 30 sec. GAPDH mRNA was quantified to adjust the amount of mRNA in each sample. The 2−ΔΔCT equation was used to estimate change in gene expressions before and after treatment of cancer cells.
Table 1 primer sequences of the used genes

caspase-3/7 [1] = assay: Caspase-3/7 activation assay (ApoONE kit) in HepG-2 cells; assay type: cell-based, human; conditions: HepG-2 cells treated with IC50 doses; relative to untreated cells; mean ± SEM
Procedure: (§2) ApoONE® Caspase-3/7 kit was used following the manufacturer’s instructions (Supplementary data).
(§3) 5.2. Caspase-3/7 activation assay
(§4) The caspase 3/7 activation was assessed, as a key indicator in caspase-dependent apoptosis, using ApoONE® Caspase-3/7 kit following the manufacturer’s instructions. This kit used a nonfluorescence substrate […]
(§5) the generation of the fluorescence signals of Rhodamine 110. Thesesignal were measured at 490 nm excitation and 520 nm emission using the fluorescence microplate reader (BMG LabTech, Germany). […]

Caco-2 cells [2] = assay: Flow cytometric analysis of apoptosis (annexin V/PI); assay type: cell-based, human; conditions: IC50 doses, 72 h, annexin-stained, mean ± SEM
Procedure: Reverse: 5′-[…]-3′
5.4. Flow cytometric analysis of apoptosis […]
human colon cancer cell line (Caco-2) for 72 h, at their minimum IC50 doses. After trypsinization, the untreated and treated cancer cells were stained with fluorescein isothiocyanate (FITC)-annexin V/ propidium iodide (PI) for 15 min. After washing with PBS, the annexin-stained apoptotic population was quantified using flow cytometry at FITC signal detector (FL1) against the phycoerythrin emission signal detector (FL2).

caspase-3/7 [3] = assay: Caspase-3/7 activation assay (ApoONE kit) in Caco-2 cells; assay type: cell-based, human; conditions: Caco-2 cells treated with IC50 doses; relative to untreated cells; mean ± SEM
Procedure: as §2, §3, §4, §5

Caco-2 cells [4] = assay: MTT cytotoxicity assay, colorectal cancer cells; assay type: cell-based, human; conditions: for SI against the screened cell lines: Caco-2 and HepG-2 cells versus Wi-38; for IC50: Homo sapiens; for Caco-2 LE: LE = 1.37 (pIC50)/NHA; for Caco-2 LLE: LLE = pIC50–cLog P; for Morphological alterations of treated Caco-2 cells: microscopic examination after 72 h, compared to untreated and 5-FU-treated cells; for Caco-2 SI: ratio of IC50 against normal cells (Wi-38) to IC50 against Caco-2
Procedure: (§6) Wi-38, Caco-2 and HepG-2 cells were cultured in DMEM medium-contained 10% FBS, seeded as 5 × 10^3 cells per well in 96-well cell culture plate and incubated at 37 °C in 5% CO2 incubator. After 24 h, serial concentrations of the test compounds were incubated with cells for 72 h. Cell viability was assayed via MTT protocol[27] (Supplementary data). IC50 values of the synthesized compounds were measured via the Graphpad Instat software. Morphological changes were examined using phase contrast inverted microscope with a digital camera (Olympus, Japan). […]
(§7) Normal human lung fibroblast Wi-38 cell line was used to detect cytotoxicity of the studied compounds.
(§8) Wi-38 cell line was cultured in DMEM medium-contained 10% fetal bovine serum (FBS), seeded as 5x10^3 cells per well in 96-well cell culture plate and incubated at 37 °C in 5% CO2 incubator. After 24 h for cell attachment, serial concentrations of the synthetic compounds and standard chemotherapy (5-fluorouracil) were incubated with Wi-38 cells for 72 h. Cell viability was assayed by MTT method Twenty microliters of 5 mg/ml MTT (Sigma, USA) was added to each well and the plate was incubated at 37 °C for 3 h. Then MTT solution was removed, 100 µl DMSO was added, and the absorbance of each well was measured with a microplate reader (BMG LabTech, Germany) at 570 nm. The dose (EC50 and EC100) values (at 50% and100% cell viability, respectively) of the tested compounds was estimated by the Graphpad Instat software.
(§9) The anticancer effect of the above-mentioned compounds was assayed using human colon cancer cell line (Caco-2) and liver cancer cell line (HepG-2) that were cultured in DMEM (Lonza, USA) supplemented with 10%
(§10) FBS. All cancer cells (5x10^3 cells/well) were seeded in sterile 96-well plates. After 24h, serial concentrations of the tested compounds and 5-fluorouracil (Fu) were incubated with two cancer cell lines for 72 h at 37 °C in 5% CO2 incubator. MTT method was done as described above. The half maximal inhibitory concentration (IC50) values were calculated using the Graphpad Instat software. Furthermore, cellular morphological changes before […]
(§11) contrast inverted microscope with a digital camera (Olympus, Japan).

HepG-2 cells [5] = assay: MTT cytotoxicity assay, liver cancer cells; assay type: cell-based, human; conditions: for IC50: Homo sapiens, HepG2; for Morphological alterations of treated HepG-2 cells: microscopic examination after 72 h, compared to untreated and 5-FU-treated cells; for HepG-2 SI: ratio of IC50 against normal cells (Wi-38) to IC50 against HepG-2
Procedure: as §6, §7, §8, §9, §10, §11

Wi-38 cells [6] = assay: MTT cytotoxicity assay, normal human fibroblasts; assay type: cell-based; conditions: 72 h, mean ± SEM; for MNTC: dose at 100% cell viability, read-out: Wi-38 EC100
Procedure: as §6, §7
as §8, with “software. […]” for “software.”

Wi-38 cells [7] = tested on: Wi-38 cells; design: method as in PMID 30826510; conditions: MTT; previously studied nitro lead; cited from earlier work
HepG-2 cells [8] = tested on: HepG-2 cells; design: method as in PMID 30826510; conditions: previously studied nitro lead, cited from earlier work
[9] = Caco-2, -log (IC50), molar, read-out: Caco-2 IC50 (converted)
[10] = Caco-2, MTT, 72 h, mean ± SEM, read-out: Caco-2 IC50 (converted)
[11] = Caco-2 and HepG-2 cells, MTT, read-out: IC50 against the screened cell lines
[12] = MTT, 72 h, mean ± SEM, read-out: HepG-2 IC50
[13] = read-out: HepG-2 pIC50 (converted)

With `CCOC(=O)c1ccc(NC(=O)C2(OC(=O)[C@H](Cc3ccccc3)NC(=O)Oc3ccccc3)CCCCC2)cc1` [7j, Ethyl-4-(1-((2-((phenoxycarbonyl)amino)-3-phenylpropanoyl)oxy)cyclohexanecarboxamido) benzoate] the “Bcl2 gene relative fold change” value (Bcl2) was 0.127 ± 0.009 fold, the “Relative fold increment in caspase 3/7 activity, HepG-2” value (caspase-3/7 [1]) was 2.960 ± 0.065 fold and the “% Apoptosis (total apoptotic cell population)” value (Caco-2 cells [2]) was 52.6% and 52.650 ± 5.310%. For the same compound, the “Relative fold increment in caspase 3/7 activity, Caco-2” value (caspase-3/7 [3]) was 3.586 ± 0.098 fold, the “SI against the screened cell lines” value (Caco-2 cells [4]) was 97–243 and the IC50 (Caco-2 cells [4]; [9]) was 69 nM. The IC50 (Caco-2 cells [4]; [10]) was 69 ± 6 nM, the IC50 (Caco-2 cells [4]; [11]) was 70 to 120 nM and the “Caco-2 LE” value (Caco-2 cells [4]) was 0.239. The “Caco-2 LLE” value (Caco-2 cells [4]) was 3.461, the “Morphological alterations of treated Caco-2 cells” value (Caco-2 cells [4]) was “severe shrinkage and morphological alterations” and the “Caco-2 SI” value (Caco-2 cells [4]) was 242.956. For the same compound, the IC50 (HepG-2 cells [5]; [12]) was 87 ± 7 nM, the IC50 (HepG-2 cells [5]; [13]) was 87.1 nM and the “Morphological alterations of treated HepG-2 cells” value (HepG-2 cells [5]) was “severe shrinkage and morphological alterations”. For the same compound, the “HepG-2 SI” value (HepG-2 cells [5]) was 192.689, the MNTC (Wi-38 cells [6]) was 1770 ± 694 nM and the IC50 (Wi-38 cells [6]) was 16800 ± 637 nM.
For `O=C(Cc1ccccc1)OC1(C(=O)Nc2ccc([N+](=O)[O-])cc2)CCCCC1` [V], the IC50 (Wi-38 cells [7]) is listed as 44 nM, the IC50 (HepG-2 cells [8]; MTT) is listed as 14 nM and the “SI (HepG-2)” value (HepG-2 cells [8]; Wi-38 vs HepG-2) is listed as 3.091.
With `CCOC(=O)c1ccc(NC(=O)C2(OC(=O)Cc3c[nH]c4ccccc34)CCCCC2)cc1` [7a, Ethyl-4-(1-(2-(1H-indol-3-yl)acetoxy)cyclohexanecarboxamido)benzoate] the “Bcl2 gene relative fold change” value (Bcl2) was 0.471 ± 0.051 fold, the “Relative fold increment in caspase 3/7 activity, HepG-2” value (caspase-3/7 [1]) was 2.938 ± 0.063 fold and the “% Apoptosis (total apoptotic cell population)” value (Caco-2 cells [2]) was 50.9% and 50.905 ± 5.975%. For the same compound, the “Relative fold increment in caspase 3/7 activity, Caco-2” value (caspase-3/7 [3]) was 3.086 ± 0.038 fold, the “SI against the screened cell lines” value (Caco-2 cells [4]) was 97–243 and the IC50 (Caco-2 cells [4]; [9]) was 88.1 nM. The IC50 (Caco-2 cells [4]; [10]) was 88 ± 10 nM, the IC50 (Caco-2 cells [4]; [11]) was 70 to 120 nM and the “Caco-2 LE” value (Caco-2 cells [4]) was 0.292. The “Caco-2 LLE” value (Caco-2 cells [4]) was 4.025, the “Morphological alterations of treated Caco-2 cells” value (Caco-2 cells [4]) was “severe shrinkage and morphological alterations” and the “Caco-2 SI” value (Caco-2 cells [4]) was 127.215. The IC50 (HepG-2 cells [5]; [12]) was 115 ± 16 nM, the IC50 (HepG-2 cells [5]; [13]) was 115 nM and the “Morphological alterations of treated HepG-2 cells” value (HepG-2 cells [5]) was “severe shrinkage and morphological alterations”. The “HepG-2 SI” value (HepG-2 cells [5]) was 97.347, the MNTC (Wi-38 cells [6]) was 2980 ± 640 nM and the IC50 (Wi-38 cells [6]) was 11200 ± 3750 nM.
